According to US12661345B2, “Compositions for the treatment of hypertension” (The George Institute for Global Health, priority 2017, dated 2026):

System: participants with migraine
Assay: Safety: serious adverse events and adverse events of special interest in the 3×3 factorial trial
[1] = Anytime between Week 0 to Week 12, % of participants
[2] = Anytime between Week 0 to Week 12, n/N participants
[3] = Randomization, % of participants
[4] = Randomization, n/N participants

Excerpt: Tolerability: • a. Difference between groups in potentially related side-effects (dizziness, blurred vision, syncope/collapse/fall, ankle edema, skin rash, itching, gout, hyperkalemia, hypokalemia, hyponatremia, myalgia, insomnia, nightmares, rebound hypertension) • b. Difference between groups in participant withdrawals from treatment • 2. Safety: Percentage with any severe adverse event (SAE) • 3.
All participants reported SAEs and adverse events of special interest (AESI) from the time of informed consent until the end of the follow-up period and reported in the case report. AESIs included: • Dizziness • Hypotension • Pedal Edema • Headache • Muscle cramps • Bradycardia • Flushing • Hypersensitivity reactions (skin rashes, itching) • Gastrointestinal complaints • Myalgia • Syncope/Collapse/Fall • Gout • Insomnia • Nightmares • Rebound hypertension • Chest tightness/pain • Tremor/shaking • Irregular heartbeat/tachycardia Statistical Methods Statistical & Analytical Plans

CC(C)NCC(O)COc1cccc2ccccc12 (stereo not shown) [Propranolol, propranolol]
Subjects with any serious adverse event (SAE) in 12 weeks (n/N) (12 weeks): 0/10
Subjects with any serious adverse event (SAE) in 12 weeks (percent) (12 weeks): 0.0%
Any SAEs [1]: (0.0%)
Bradycardia [1]: (10.0%)
Falls [1]: (0.0%)
Flushing [1]: (0.0%)
Gastrointestinal complaints [1]: (30.0%)
Gout [1]: (0.0%)
Headache [1]: (90.0%)
Insomnia [1]: (40.0%)
Muscle cramps [1]: (30.0%)
Myalgia [1]: (20.0%)
Nightmares [1]: (10.0%)
Pedal edema [1]: (0.0%)
Syncope [1]: (10.0%)
Any SAEs [2]: 0/10
Bradycardia [2]: 1/10
Falls [2]: 0/10
Flushing [2]: 0/10
Gastrointestinal complaints [2]: 3/10
Gout [2]: 0/10
Headache [2]: 9/10
Insomnia [2]: 4/10
Muscle cramps [2]: 3/10
Myalgia [2]: 2/10
Nightmares [2]: 1/10
Pedal edema [2]: 0/10
Syncope [2]: 1/10
Any SAEs since the last visit? [3]: (0.0%)
Bradycardia [3]: (0.0%)
Falls [3]: (0.0%)
Flushing [3]: (10.0%)
Gastrointestinal complaints [3]: (0.0%)
Gout [3]: (0.0%)
Headache [3]: (100.0%)
Insomnia [3]: (0.0%)
Muscle cramps [3]: (0.0%)
Myalgia [3]: (0.0%)
Nightmares [3]: (0.0%)
Pedal edema [3]: (0.0%)
Syncope [3]: (0.0%)
Any SAEs since the last visit? [4]: 0/10
Bradycardia [4]: 0/10
Falls [4]: 0/10
Flushing [4]: 1/10
Gastrointestinal complaints [4]: 0/10
Gout [4]: 0/10
Headache [4]: 10/10
Insomnia [4]: 0/10
Muscle cramps [4]: 0/10
Myalgia [4]: 0/10
Nightmares [4]: 0/10
Pedal edema [4]: 0/10
Syncope [4]: 0/10
Any SAEs since the last visit? (Week 4, % of participants): (0.0%)
Bradycardia (Week 4, % of participants): (0.0%)
Falls (Week 4, % of participants): (0.0%)
Flushing (Week 4, % of participants): (0.0%)
Gastrointestinal complaints (Week 4, % of participants): (20.0%)
Gout (Week 4, % of participants): (0.0%)
Headache (Week 4, % of participants): (90.0%)
Insomnia (Week 4, % of participants): (20.0%)
Muscle cramps (Week 4, % of participants): (10.0%)
Myalgia (Week 4, % of participants): (10.0%)
Nightmares (Week 4, % of participants): (0.0%)
Pedal edema (Week 4, % of participants): (0.0%)
Syncope (Week 4, % of participants): (0.0%)
Any SAEs since the last visit? (Week 4, n/N participants): 0/10
Bradycardia (Week 4, n/N participants): 0/10
Falls (Week 4, n/N participants): 0/10
Flushing (Week 4, n/N participants): 0/10
Gastrointestinal complaints (Week 4, n/N participants): 2/10
Gout (Week 4, n/N participants): 0/10
Headache (Week 4, n/N participants): 9/10
Insomnia (Week 4, n/N participants): 2/10
Muscle cramps (Week 4, n/N participants): 1/10
Myalgia (Week 4, n/N participants): 1/10
Nightmares (Week 4, n/N participants): 0/10
Pedal edema (Week 4, n/N participants): 0/10
Syncope (Week 4, n/N participants): 0/10
Any SAEs since the last visit? (Week 8, % of participants): (0.0%)
Bradycardia (Week 8, % of participants): (0.0%)
Falls (Week 8, % of participants): (0.0%)
Flushing (Week 8, % of participants): (0.0%)
Gastrointestinal complaints (Week 8, % of participants): (0.0%)
Gout (Week 8, % of participants): (0.0%)
Headache (Week 8, % of participants): (80.0%)
Insomnia (Week 8, % of participants): (30.0%)
Muscle cramps (Week 8, % of participants): (0.0%)
Myalgia (Week 8, % of participants): (10.0%)
Nightmares (Week 8, % of participants): (0.0%)
Pedal edema (Week 8, % of participants): (0.0%)
Syncope (Week 8, % of participants): (0.0%)
Any SAEs since the last visit? (Week 8, n/N participants): 0/10
Bradycardia (Week 8, n/N participants): 0/10
Falls (Week 8, n/N participants): 0/10
Flushing (Week 8, n/N participants): 0/10
Gastrointestinal complaints (Week 8, n/N participants): 0/10
Gout (Week 8, n/N participants): 0/10
Headache (Week 8, n/N participants): 8/10
Insomnia (Week 8, n/N participants): 3/10
Muscle cramps (Week 8, n/N participants): 0/10
Myalgia (Week 8, n/N participants): 1/10
Nightmares (Week 8, n/N participants): 0/10
Pedal edema (Week 8, n/N participants): 0/10
Syncope (Week 8, n/N participants): 0/10
Any SAEs since the last visit? (Week 12, % of participants): (0.0%)
Bradycardia (Week 12, % of participants): (10.0%)
Falls (Week 12, % of participants): (0.0%)
Flushing (Week 12, % of participants): (0.0%)
Gastrointestinal complaints (Week 12, % of participants): (10.0%)
Gout (Week 12, % of participants): (0.0%)
Headache (Week 12, % of participants): (80.0%)
Insomnia (Week 12, % of participants): (20.0%)
Muscle cramps (Week 12, % of participants): (20.0%)
Myalgia (Week 12, % of participants): (0.0%)
Nightmares (Week 12, % of participants): (10.0%)
Pedal edema (Week 12, % of participants): (0.0%)
Syncope (Week 12, % of participants): (10.0%)
Any SAEs since the last visit? (Week 12, n/N participants): 0/10
Bradycardia (Week 12, n/N participants): 1/10
Falls (Week 12, n/N participants): 0/10
Flushing (Week 12, n/N participants): 0/10
Gastrointestinal complaints (Week 12, n/N participants): 1/10
Gout (Week 12, n/N participants): 0/10
Headache (Week 12, n/N participants): 8/10
Insomnia (Week 12, n/N participants): 2/10
Muscle cramps (Week 12, n/N participants): 2/10
Myalgia (Week 12, n/N participants): 0/10
Nightmares (Week 12, n/N participants): 1/10
Pedal edema (Week 12, n/N participants): 0/10
Syncope (Week 12, n/N participants): 1/10
Any SAEs since the last visit? (Week 13, % of participants): (0.0%)
Bradycardia (Week 13, % of participants): (0.0%)
Falls (Week 13, % of participants): (0.0%)
Flushing (Week 13, % of participants): (0.0%)
Gastrointestinal complaints (Week 13, % of participants): (20.0%)
Gout (Week 13, % of participants): (0.0%)
Headache (Week 13, % of participants): (90.0%)
Insomnia (Week 13, % of participants): (0.0%)
Muscle cramps (Week 13, % of participants): (20.0%)
Myalgia (Week 13, % of participants): (20.0%)
Nightmares (Week 13, % of participants): (0.0%)
Pedal edema (Week 13, % of participants): (10.0%)
Rebound hypertension (Week 13, % of participants): (0.0%)
Syncope (Week 13, % of participants): (0.0%)
Any SAEs since the last visit? (Week 13, n/N participants): 0/10
Bradycardia (Week 13, n/N participants): 0/10
Falls (Week 13, n/N participants): 0/10
Flushing (Week 13, n/N participants): 0/10
Gastrointestinal complaints (Week 13, n/N participants): 2/10
Gout (Week 13, n/N participants): 0/10
Headache (Week 13, n/N participants): 9/10
Insomnia (Week 13, n/N participants): 0/10
Muscle cramps (Week 13, n/N participants): 2/10
Myalgia (Week 13, n/N participants): 2/10
Nightmares (Week 13, n/N participants): 0/10
Pedal edema (Week 13, n/N participants): 1/10
Rebound hypertension (Week 13, n/N participants): 0/10
Syncope (Week 13, n/N participants): 0/10
Any SAEs since the last visit? (Week 16, % of participants): (0.0%)
Bradycardia (Week 16, % of participants): (0.0%)
Falls (Week 16, % of participants): (0.0%)
Flushing (Week 16, % of participants): (0.0%)
Gastrointestinal complaints (Week 16, % of participants): (0.0%)
Gout (Week 16, % of participants): (0.0%)
Headache (Week 16, % of participants): (100.0%)
Insomnia (Week 16, % of participants): (0.0%)
Irregular heartbeat/tachycardia (Week 16, % of participants): (10.0%)
Muscle cramps (Week 16, % of participants): (10.0%)
Myalgia (Week 16, % of participants): (0.0%)
Nightmares (Week 16, % of participants): (0.0%)
Pedal edema (Week 16, % of participants): (0.0%)
Rebound hypertension (Week 16, % of participants): (20.0%)
Syncope (Week 16, % of participants): (0.0%)
Any SAEs since the last visit? (Week 16, n/N participants): 0/10
Bradycardia (Week 16, n/N participants): 0/10
Falls (Week 16, n/N participants): 0/10
Flushing (Week 16, n/N participants): 0/10
Gastrointestinal complaints (Week 16, n/N participants): 0/10
Gout (Week 16, n/N participants): 0/10
Headache (Week 16, n/N participants): 10/10
Insomnia (Week 16, n/N participants): 0/10
Irregular heartbeat/tachycardia (Week 16, n/N participants): 1/10
Muscle cramps (Week 16, n/N participants): 1/10
Myalgia (Week 16, n/N participants): 0/10
Nightmares (Week 16, n/N participants): 0/10
Pedal edema (Week 16, n/N participants): 0/10
Rebound hypertension (Week 16, n/N participants): 2/10
Syncope (Week 16, n/N participants): 0/10
